# In publication PMC3548404 (Nature, 2010):
# Assays:
# AtSLAC1 [1] = target: T1, AtSLAC1 (Arabidopsis thaliana, UniProt Q9LD83); assay: two-electrode voltage clamp, Xenopus oocytes; type: cell-based; settings: 50 mM sodium salt in bath, pH 5.6; permeant anion
# T1 sequence (Q9LD83 1-556): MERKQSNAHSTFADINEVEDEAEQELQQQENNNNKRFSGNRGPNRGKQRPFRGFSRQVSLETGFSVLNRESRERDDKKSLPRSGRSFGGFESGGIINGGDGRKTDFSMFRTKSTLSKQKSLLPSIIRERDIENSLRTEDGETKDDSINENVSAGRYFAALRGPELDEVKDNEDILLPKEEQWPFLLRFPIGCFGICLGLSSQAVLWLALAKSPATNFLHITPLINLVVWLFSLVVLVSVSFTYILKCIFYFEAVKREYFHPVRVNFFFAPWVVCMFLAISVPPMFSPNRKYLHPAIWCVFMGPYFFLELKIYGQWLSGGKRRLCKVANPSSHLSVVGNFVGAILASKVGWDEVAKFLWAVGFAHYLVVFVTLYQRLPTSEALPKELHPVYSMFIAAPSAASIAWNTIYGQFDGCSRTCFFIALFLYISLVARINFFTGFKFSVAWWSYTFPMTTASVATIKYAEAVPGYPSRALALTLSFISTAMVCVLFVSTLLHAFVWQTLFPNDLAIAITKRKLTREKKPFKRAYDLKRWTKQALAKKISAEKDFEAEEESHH
# AtSLAC1 [2] = target: T1, AtSLAC1; settings: 30 mM CsCl bath, pH 5.6; permeant anion; no AtOST1
Compound,P[X]/P[Cl] (AtSLAC1 [1]),chloride current at -90 mV (AtSLAC1 [2])
O=[N+]([O-])O [nitrate],"selective among anions, with greater permeability for nitrate than for chloride",–
Cl [chloride],–,We observed modest-sized chloride currents with wild-type AtSLAC1 cRNA
